# Test results reported in patent US12497402B2, “IRAK4 degraders and uses thereof” (priority 2021, dated 2025).
# “And” between values parts separate entries of the source, which are not always exact repeats. Equal entries are not always repeated.
# Legend:
# [1] = 4-week oral gavage toxicokinetic study with Compound A in dogs (plasma); conditions: dog
# Excerpt: The vehicle was HPBCD (Kleptose Oral Grade HPB) prepared in reverse osmosis water.
# Assessment of toxicity was based on mortality, clinical observations, body weights, food consumption, ophthalmic observations, electrocardiographic (ECG) measurements, and clinical and anatomic pathology. Blood samples were collected for toxicokinetic evaluation.
# [2] = 4-week oral gavage toxicity study with Compound A in dogs with 2-week recovery; type: in vivo; conditions: for Reversal of vacuolated macrophages at recovery sacrifice: 30 or 200/60 mg/kg/dose
# [3] = tested on: TLR agonist (lipopolysaccharide and R848) and IL-1β-induced proinflammatory cytokine production; experiment: In vitro cytokine release assays in PBMCs; type: cell-based; conditions: R848 and IL-1β stimulation, IL-6, TNF-α, GM-CSF, IL-8
# [4] = tested on: MSU-crystal induced (TLR 2/4-dependent) inflammation; experiment: Mouse air pouch model of MSU-crystal induced inflammation; type: in vivo; conditions: 3 days twice daily, 30 to 100 mg/kg
# [5] = tested on: imiquimod psoriasis model (TLR 7/8-dependent); experiment: Imiquimod psoriasis model; type: in vivo, mouse
# [6] = In vivo pharmacokinetic studies in rats, dogs and monkeys
# Solubility = type: physicochemical
# Permeability = type: in vitro ADME
# P-glycoprotein (P-gp) = P-glycoprotein (P-gp) (Homo sapiens, UniProt P08183); experiment: P-gp substrate assessment in vitro; type: in vitro ADME
# [7] = target: T1, breast cancer resistance protein (BCRP) (Homo sapiens, UniProt Q9UNQ0); experiment: BCRP substrate assessment in vitro; type: in vitro ADME
# T1 sequence (Q9UNQ0 1-655): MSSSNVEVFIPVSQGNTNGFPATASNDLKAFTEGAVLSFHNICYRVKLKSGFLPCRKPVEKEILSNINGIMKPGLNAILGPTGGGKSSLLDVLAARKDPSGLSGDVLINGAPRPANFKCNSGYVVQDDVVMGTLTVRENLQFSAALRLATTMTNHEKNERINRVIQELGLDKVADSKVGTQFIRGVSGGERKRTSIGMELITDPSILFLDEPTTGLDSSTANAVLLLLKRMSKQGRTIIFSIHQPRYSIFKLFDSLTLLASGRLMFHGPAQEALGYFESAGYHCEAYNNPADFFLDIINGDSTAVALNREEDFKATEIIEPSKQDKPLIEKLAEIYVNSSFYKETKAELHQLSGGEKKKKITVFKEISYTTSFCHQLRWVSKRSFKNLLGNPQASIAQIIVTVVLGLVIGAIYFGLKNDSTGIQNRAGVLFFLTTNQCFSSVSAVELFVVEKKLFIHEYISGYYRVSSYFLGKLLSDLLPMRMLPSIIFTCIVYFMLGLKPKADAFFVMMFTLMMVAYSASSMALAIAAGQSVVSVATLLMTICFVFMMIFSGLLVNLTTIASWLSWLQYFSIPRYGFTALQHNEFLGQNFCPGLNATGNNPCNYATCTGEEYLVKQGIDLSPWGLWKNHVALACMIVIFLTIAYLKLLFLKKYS
# Plasma protein binding = type: in vitro ADME; conditions: across nonclinical species and humans
# [8] = Red blood cell partitioning; type: in vitro ADME
# [9] = Distribution studies in rats; type: in vivo, rat
# cytochrome P450 (CYP) = experiment: In vitro and in vivo metabolism studies; type: in vitro ADME
# [10] = Excretion study in bile duct-cannulated (BDC) rats; type: in vivo, rat
# CYP2C19 = CYP2C19 (Homo sapiens, UniProt P33261); experiment: In vitro drug-drug interaction study, CYP2C19; type: in vitro ADME
# CYP3A4 = CYP3A4 (Homo sapiens, UniProt P08684); experiment: In vitro drug-drug interaction study, CYP3A4; type: in vitro ADME
# BCRP = target: T2, BCRP (Homo sapiens, UniProt Q9UNQ0); experiment: In vitro drug-drug interaction study, BCRP efflux; type: in vitro ADME
# T2 sequence (Q9UNQ0 1-655): T1 sequence (Q9UNQ0 1-655)
# [11] = both, beagle, in vivo, po, 5 mg/kg, Tmax
# [12] = both, beagle, in vivo, po, 30 mg/kg, Tmax
# [13] = both, beagle, in vivo, po, 60 mg/kg, Tmax
# [14] = both, beagle, in vivo, po, 60 mg/kg/day, median Tmax
# [15] = both, beagle, in vivo, po, 100 mg/kg, Tmax
# [16] = both, beagle, in vivo, po, 200 mg/kg, Tmax
# [17] = both, beagle, in vivo, po, median Tmax
# [18] = both, beagle, in vivo, po, 5 mg/kg, t1/2
# Sequence of CYP2C19 (P33261 whole entry): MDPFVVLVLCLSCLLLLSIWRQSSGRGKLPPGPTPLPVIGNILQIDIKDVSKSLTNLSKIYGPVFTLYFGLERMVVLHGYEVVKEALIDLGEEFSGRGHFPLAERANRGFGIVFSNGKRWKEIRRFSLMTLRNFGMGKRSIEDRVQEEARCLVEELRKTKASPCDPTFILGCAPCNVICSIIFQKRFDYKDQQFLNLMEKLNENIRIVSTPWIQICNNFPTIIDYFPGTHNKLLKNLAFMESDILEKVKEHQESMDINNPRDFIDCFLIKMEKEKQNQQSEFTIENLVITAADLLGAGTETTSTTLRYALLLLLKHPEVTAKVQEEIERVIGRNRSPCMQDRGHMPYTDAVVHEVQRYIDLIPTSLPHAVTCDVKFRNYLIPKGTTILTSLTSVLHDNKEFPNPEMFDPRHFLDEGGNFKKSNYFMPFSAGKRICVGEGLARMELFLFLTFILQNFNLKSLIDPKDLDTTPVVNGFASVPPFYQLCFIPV
# Sequence of CYP3A4 (P08684 whole entry): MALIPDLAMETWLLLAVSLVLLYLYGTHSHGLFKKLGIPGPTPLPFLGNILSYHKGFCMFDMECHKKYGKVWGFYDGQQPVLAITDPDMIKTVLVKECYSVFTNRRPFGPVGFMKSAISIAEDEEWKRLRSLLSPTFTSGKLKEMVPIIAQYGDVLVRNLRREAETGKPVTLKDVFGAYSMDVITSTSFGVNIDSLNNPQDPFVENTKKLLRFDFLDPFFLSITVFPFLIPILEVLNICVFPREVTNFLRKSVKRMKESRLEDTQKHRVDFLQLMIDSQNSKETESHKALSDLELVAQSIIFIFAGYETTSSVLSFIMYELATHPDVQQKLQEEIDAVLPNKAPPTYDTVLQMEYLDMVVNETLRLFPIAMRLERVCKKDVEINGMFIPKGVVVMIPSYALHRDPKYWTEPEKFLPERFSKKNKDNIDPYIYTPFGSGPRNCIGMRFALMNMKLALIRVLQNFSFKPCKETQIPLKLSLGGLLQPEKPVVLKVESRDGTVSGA
# Sequence of P-glycoprotein (P-gp) (P08183 whole entry): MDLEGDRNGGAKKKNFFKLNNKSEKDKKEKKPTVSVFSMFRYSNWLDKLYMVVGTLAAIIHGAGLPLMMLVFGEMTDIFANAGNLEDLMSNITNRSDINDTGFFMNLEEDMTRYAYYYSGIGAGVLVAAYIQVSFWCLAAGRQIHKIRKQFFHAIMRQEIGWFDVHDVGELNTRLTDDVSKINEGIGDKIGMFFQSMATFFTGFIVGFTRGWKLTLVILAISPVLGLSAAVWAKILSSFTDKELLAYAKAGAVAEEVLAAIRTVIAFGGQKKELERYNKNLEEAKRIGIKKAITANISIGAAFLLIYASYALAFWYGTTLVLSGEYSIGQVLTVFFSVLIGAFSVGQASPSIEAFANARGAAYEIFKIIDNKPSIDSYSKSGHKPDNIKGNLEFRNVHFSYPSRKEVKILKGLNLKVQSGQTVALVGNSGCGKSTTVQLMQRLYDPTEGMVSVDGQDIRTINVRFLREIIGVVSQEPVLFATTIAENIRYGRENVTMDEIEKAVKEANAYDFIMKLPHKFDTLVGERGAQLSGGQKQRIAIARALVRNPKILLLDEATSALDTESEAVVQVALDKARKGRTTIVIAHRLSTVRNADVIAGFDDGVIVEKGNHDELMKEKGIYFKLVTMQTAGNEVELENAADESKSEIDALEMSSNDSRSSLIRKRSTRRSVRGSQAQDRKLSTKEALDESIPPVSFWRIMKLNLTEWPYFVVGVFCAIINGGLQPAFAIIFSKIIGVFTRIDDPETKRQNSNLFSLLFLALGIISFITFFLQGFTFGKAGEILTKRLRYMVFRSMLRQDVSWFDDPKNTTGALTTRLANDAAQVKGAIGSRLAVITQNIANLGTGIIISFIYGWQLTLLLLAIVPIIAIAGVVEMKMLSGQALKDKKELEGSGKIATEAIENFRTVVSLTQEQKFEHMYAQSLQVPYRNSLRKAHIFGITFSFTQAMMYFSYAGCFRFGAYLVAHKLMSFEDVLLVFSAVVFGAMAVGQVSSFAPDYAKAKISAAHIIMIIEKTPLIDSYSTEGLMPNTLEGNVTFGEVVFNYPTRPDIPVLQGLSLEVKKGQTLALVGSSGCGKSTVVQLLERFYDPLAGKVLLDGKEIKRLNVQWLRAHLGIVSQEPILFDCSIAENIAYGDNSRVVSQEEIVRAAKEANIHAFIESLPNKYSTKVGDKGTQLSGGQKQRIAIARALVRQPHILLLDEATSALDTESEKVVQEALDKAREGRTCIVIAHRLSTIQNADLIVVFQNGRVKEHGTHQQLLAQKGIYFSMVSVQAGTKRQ
compound,measurement,setting,value
"Cn1c(=O)n(C2CCC(=O)NC2=O)c2cccc(C#CCOC3CCN(C[C@H]4CC[C@H](n5cc(NC(=O)c6cnn7ccc(N8C[C@H]9C[C@@H]8CO9)nc67)c(C(F)F)n5)CC4)CC3)c21 (stereo partly drawn) [Compound A, 5-((1R,4R)-2-oxa-5-azabicyclo[2.2.1]heptan-5-yl)-N-(3-(difluoromethyl)-1-((1r,4R)-4-((4-((3-(1-(2,6-dioxopiperidin-3-yl)-3-methyl-2-oxo-2,3-dihydro-1H-benzo[d]imidazol-4-yl)prop-2-yn-1-yl)oxy)piperidin-1-yl)methyl)cyclohexyl)-1H-pyrazol-4-yl)pyrazolo[1,5-a]pyrimidine-3-carboxamide]",half-life,"[1]; beagle, plasma, po, 30 mg/kg, t1/2, elimination half-life, N = 1, dog plasma, Day 1, Group 3, Cmpd A 30 mg/kg/dose oral gavage",6.54 h
same,Potential accumulation after multiple doses,"[1]; both, beagle, in vivo",up to 2.14 fold
same,Sex differences in mean Cmax and AUC0-24 values,"[1]; both, beagle, in vivo",less than 2 fold
same,median Tmax,"[1]; both, beagle, in vivo, po",5.00 to 12.0 h
same,Tmax,[1]; [11],4 h
same,Tmax,[1]; [12],5 h and 4 h
same,Tmax,[1]; [13],6 h
same,Tmax,[1]; [14],6 h
same,Tmax,[1]; [15],9 h
same,Tmax,[1]; [16],12 h
same,Tmax,[1]; [17],5 to 9 h
same,half-life,"[1]; both, beagle, plasma, po, 5 mg/kg, t1/2, mean elimination half-life, dog plasma, Day 1, Group 2, Cmpd A 5 mg/kg/dose oral gavage",7.6 h
same,half-life,"[1]; both, beagle, plasma, po, 5 mg/kg, t1/2, mean elimination half-life, dog plasma, Day 8, Group 2, Cmpd A 5 mg/kg/dose oral gavage",8.08 h
same,half-life,"[1]; both, beagle, plasma, po, 5 mg/kg, t1/2, mean elimination half-life, dog plasma, Day 28, Group 2, Cmpd A 5 mg/kg/dose oral gavage",8.19 h
same,half-life,"[1]; both, beagle, plasma, po, mean half-life (t1/2), dog plasma, Day 1, range across groups",6.54 to 7.6 h
same,Dose proportionality of increases in mean Cmax and AUC0-24,[1]; in vivo,less than dose proportional
same,NOAEL at 4 weeks,"[2]; both sexes, beagle, dog, in vivo, dogs, oral gavage once daily, 4 weeks, read-out: no observed adverse effect level (NOAEL)",60 mg/kg/day
same,"Body weight, body weight gain, food consumption","[2]; dog, in vivo","No Compound A-related alterations in mean body weight, body weight gain, or food consumption were noted at any dose level"
same,Clinical and ophthalmic observations,"[2]; dog, in vivo",No Compound A-related clinical observations or abnormal ophthalmic observations were noted
same,ECG observation,"[2]; dog, in vivo",No Compound A-related abnormalities were noted during the dosing phase ECG observation
same,"Hematology, coagulation, clinical chemistry, urinalysis","[2]; dog, in vivo","No Compound A-related effects in scheduled hematology, coagulation, clinical chemistry, or urinalysis test results were identified"
same,Organ weights and macroscopic observations,"[2]; dog, in vivo",No Compound A-related organ weight differences or macroscopic observations were noted
same,Microscopic findings (vacuolated macrophages),"[2]; dog, in vivo, 30 mg/kg","increases of vacuolated macrophages in the small intestine, lymphoid tissues, and lung were considered nonadverse"
same,Mortality,"[2]; female, beagle, dog, in vivo, 100 mg/kg, 4 day (of dosing phase)",One female administered 100 mg/kg/dose was sacrificed in a moribund condition on Day 4 of the dosing phase
same,Reversal of vacuolated macrophages at recovery sacrifice,[2]; mesenteric lymph node,lack of reversal after 2 weeks
same,Reversal of vacuolated macrophages at recovery sacrifice,"[2]; small intestine, GALT/Peyer's patches, mandibular lymph nodes, lung, 2-week recovery",partial reversal
same,Reversal of vacuolated macrophages at recovery sacrifice,"[2]; spleen, 2-week recovery",complete reversal
same,IC50 (inhibition of proinflammatory cytokine production),[3],low nM range
same,IRAK4 levels in the spleen,[4],significantly reduced IRAK4 levels in the spleen
same,"Inflammatory exudate (neutrophils, IL-1β)",[4],significantly reduced the inflammatory exudate
same,IRAK4 degradation in spleen and skin,"[5]; mouse, in vivo",dose-dependent degradation of IRAK4 in the spleen and skin
same,Skin thickness,"[5]; mouse, in vivo",reduction in skin thickness
same,IL-1β in the skin,[5]; p<0.0001,significant reduction
same,IL-6 in the skin,"[5]; p<0.05, 300 mg/kg only",significant reduction
same,Bioavailability,[6],low to moderate bioavailability
same,Clearance,[6],moderate to high clearance
same,Terminal half-life,[6],moderate terminal half-life
same,Volume of distribution at steady state,[6],high volume of distribution at steady state
same,Solubility,Solubility,low solubility
same,Permeability,Permeability,moderate permeability
same,P-gp substrate status,P-glycoprotein (P-gp),substrate
same,BCRP substrate status,[7],substrate
same,Plasma protein binding,Plasma protein binding,highly bound to plasma proteins
same,Partitioning into red blood cells,[8],did not significantly partition into red blood cells
same,CNS penetration,[9],limited penetration into the central nervous system (CNS)
same,Tissue distribution,[9],extensively distributed into tissues
same,Main metabolizing enzyme,cytochrome P450 (CYP),primarily metabolized by CYP3A4
same,Metabolic pathway,cytochrome P450 (CYP); in vitro and in vivo,underwent oxidative metabolism via cytochrome P450 (CYP)
same,Biliary and intestinal excretion,[10],minor to moderate biliary and intestinal excretion as parent drug
same,Renal clearance,[10],negligible renal clearance
same,Inhibition of CYP2C19,CYP2C19,potential time dependent inhibition (TDI)
same,Inhibition of CYP3A4,CYP3A4,potential time dependent inhibition (TDI)
same,Inhibition of BCRP efflux,BCRP,inhibited BCRP efflux
"Cn1c(=O)n([C@H]2CCC(=O)NC2=O)c2cccc(C#CCOC3CCN(C[C@H]4CC[C@H](n5cc(NC(=O)c6cnn7ccc(N8C[C@H]9C[C@@H]8CO9)nc67)c(C(F)F)n5)CC4)CC3)c21 [Compound B, 5-((1R,4R)-2-oxa-5-azabicyclo[2.2.1]heptan-5-yl)-N-(3-(difluoromethyl)-1-((1r,4R)-4-((4-((3-(1-((S)-2,6-dioxopiperidin-3-yl)-3-methyl-2-oxo-2,3-dihydro-1H-benzo[d]imidazol-4-yl)prop-2-yn-1-yl)oxy)piperidin-1-yl)methyl)cyclohexyl)-1H-pyrazol-4-yl)pyrazolo[1,5-a]pyrimidine-3-carboxamide]",Potential accumulation after multiple doses,"[1]; both, beagle, in vivo",≤ 1.98 fold
same,Sex differences in mean Cmax and AUC0-24 values,"[1]; both, beagle, in vivo",less than 2 fold
same,Tmax,[1]; [11],4 h
same,half-life,[1]; [18],7.6 h
same,Tmax,[1]; [12],4 h
same,Tmax,[1]; [13],4 h
same,Tmax,[1]; [14],4 h
same,Tmax,[1]; [15],6 h
same,Tmax,[1]; [17],6 to 9 h
same,Dose proportionality of increases in mean Cmax and AUC0-24,[1]; in vivo,less than dose proportional
"Cn1c(=O)n([C@@H]2CCC(=O)NC2=O)c2cccc(C#CCOC3CCN(C[C@H]4CC[C@H](n5cc(NC(=O)c6cnn7ccc(N8C[C@H]9C[C@@H]8CO9)nc67)c(C(F)F)n5)CC4)CC3)c21 [Compound C, 5-((1R,4R)-2-oxa-5-azabicyclo[2.2.1]heptan-5-yl)-N-(3-(difluoromethyl)-1-((1r,4R)-4-((4-((3-(1-((R)-2,6-dioxopiperidin-3-yl)-3-methyl-2-oxo-2,3-dihydro-1H-benzo[d]imidazol-4-yl)prop-2-yn-1-yl)oxy)piperidin-1-yl)methyl)cyclohexyl)-1H-pyrazol-4-yl)pyrazolo[1,5-a]pyrimidine-3-carboxamide]",Potential accumulation after multiple doses,"[1]; both, beagle, in vivo",≤ 1.86 fold
same,Sex differences in mean Cmax and AUC0-24 values,"[1]; both, beagle, in vivo",less than 2 fold
same,Tmax,[1]; [11],4 h
same,half-life,[1]; [18],7.65 h
same,Tmax,[1]; [12],4 h
same,Tmax,[1]; [13],4 h
same,Tmax,"[1]; both, beagle, in vivo, po, 60 mg/kg, median Tmax",4 h
same,Tmax,[1]; [15],6 h
same,Tmax,[1]; [16],4 h
same,Tmax,[1]; [17],6 h
same,Dose proportionality of increases in mean Cmax and AUC0-24,[1]; in vivo,less than dose proportional
